The values below are quoted from earlier work in patent US11670410B1, “Systems and methods to automatically administer a psychoactive substance to an airway of a user based on a detected event or condition” (priority 2022, dated 2023).

A value given as a limit tells only on which side of the number the result lay.

For series [1] the following is noted: galantamine consumed orally.
For series [2] the following is noted: nose-to-brain device, protocol dose 1 mg.
The conditions of series [3]: @ 5 min., protocol dose 1.0 mg.
The conditions of series [4]: inhaled after vaporization; protocol dose 10 mcg/Kg.

`COc1ccc2c3c1O[C@H]1C[C@@H](O)C=C[C@@]31CCN(C)C2` [Galantamine, galantamine]: the Tmax in series [1] was approximately 1.5 h. The “PK-Intranasal Tmax” value in series [2] is 0.5 to 0.75 h.
Consider `CC[C@H](C)[C@@H]1NC(=O)[C@H](Cc2ccc(O)cc2)NC(=O)[C@@H](N)CSSC[C@@H](C(=O)N2CCC[C@H]2C(=O)N[C@@H](CC(C)C)C(=O)NCC(N)=O)NC(=O)[C@H](CC(N)=O)NC(=O)[C@H](CCC(N)=O)NC1=O` [Oxytocin, oxytocin], for which the “PK-Intranasal olfactory bulb concentration” value in series [3] is > 0 @ 5 min.
With `COC(=O)[C@@H]1C[C@H](OC(C)=O)C(=O)[C@H]2[C@@]1(C)CC[C@H]1C(=O)O[C@H](c3ccoc3)C[C@]21C` [Salvinorin A, salvinorin A], in series [4], the “PK-Inhaled Tmax” value was “Tmax = 2 min”.
